Legend:
[1] = target: T1, Porcine pancreatic α-amylase (PPA) (Sus scrofa, UniProt P00690); assay: DNS reducing sugar assay, […] nm; format: biochemical
T1 sequence (P00690 16-511): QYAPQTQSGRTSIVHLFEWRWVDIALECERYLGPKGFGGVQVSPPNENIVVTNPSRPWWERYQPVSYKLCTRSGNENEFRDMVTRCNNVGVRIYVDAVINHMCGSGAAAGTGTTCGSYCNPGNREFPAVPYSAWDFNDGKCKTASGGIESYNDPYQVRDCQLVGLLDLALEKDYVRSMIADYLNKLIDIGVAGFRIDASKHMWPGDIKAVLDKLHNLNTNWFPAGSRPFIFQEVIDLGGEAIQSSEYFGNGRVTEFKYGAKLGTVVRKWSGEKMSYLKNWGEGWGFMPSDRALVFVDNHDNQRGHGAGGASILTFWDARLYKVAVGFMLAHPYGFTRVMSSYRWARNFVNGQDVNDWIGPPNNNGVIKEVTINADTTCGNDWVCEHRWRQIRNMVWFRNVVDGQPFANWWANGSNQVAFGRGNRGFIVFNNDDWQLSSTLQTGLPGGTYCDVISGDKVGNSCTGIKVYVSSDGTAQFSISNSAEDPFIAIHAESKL

[2] = target: LDH-A (lactate dehydrogenase-A); assay: NADH oxidation at […] nm, crude goat liver enzyme; format: biochemical, Capra hircus; conditions: 1.8 mM pyruvate, 5 mM NADH, 50 mM Tris pH 7.6

IC50 [1]	IC50 [2]	SMILES
22 µM		O=C1C[C@@H](c2ccc(O)c(O)c2)Oc2cc(O)cc(O)c21 [E, Eriodictyol]
24 µM		O=c1c(O)c(-c2cc(O)c(O)c(O)c2)oc2cc(O)cc(O)c12 [M, Myricetin]
	4.16 µM	O=c1c(O)c(-c2ccc(O)c(O)c2)oc2cc(O)cc(O)c12 [Q, Quercetin]

Source: publication doi:10.1101/2024.11.09.622828v1 (biorxiv, 2024)
